Test results from patent publication US20220411847A1, “GLUCOSE/GALACTOSE BIOSENSORS AND METHODS OF USING SAME” (Duke University, priority 2015, published 2022).
Values belong to the substance of their own block, whether it stands above or below them.

Experiments:
[1] = Thermal denaturation followed by fluorescence ratio, two-state fit; format: physicochemical; details: thermal stability of the 183C acrylodan conjugate mutant
Method: (§1) The titration series were mixed with GGBP183C⋅acrylodan or BD_SM4⋅acrylodan conjugates in 384-well microtiter plates. The temperature dependence of the titrations was measured in a real-time PCR machine (Roche LightCycler 480) by determining the ratio of fluorescence emission intensities at 488, 510, and 580 nm (excitation at 440 nm) as a function of temperature (290-370K). Temperatures were advanced in 1K steps. At each temperature data was collected for at 1-second intervals for 60 seconds at which point the signal had relaxed to a steady value associated with the new temperature. Collection times were adjusted to minimize photobleaching (which was not detectable under these experimental conditions). Data reduction software was developed to convert these observations into time-independent datasets that record fluorescence as a function of temperature for each well and associate wells with their concentration of titrant and additive. Management tools were developed to maintain a database of titrations and their analyses.
Fits of these equation systems to experimental observations such as shown in FIG. 5 require good initial estimates of the parameters. These can then be refined using multi-dimensional conjugate gradient methods. To obtain local fits for protein thermostability in the absence of ligand we solve
This gives excellent fits (FIG. 7).

[2] = Fluorescence emission response to ligand binding; set-up: key to Response Intensity^c: +, increases in response to ligand; —: decreases; 0, no change in the glucose titration; key to Response Shape^b: m, monochromatic; d, dichromatic (i.e. spectral shape changes); 0, no change in the glucose titration; details: glucose titration; Nanodrop3300; room temperature
Method: as §1
(§2) In addition to the Roche LightCycler, which has a limited choice of emission wavelengths, data for selected mutants also was measured at room temperature on a Nanodrop3300 (Thermo Scientific) fluorimeter, which records full emission spectra. Emission intensities at a particular wavelength were extracted by integration of the spectral emission intensities over a 20-nm interval centered on that wavelength.

[3] = Glucose titration at room temperature on Nanodrop3300 fluorimeter; format: binding
Method: as §2
(§3) Signals S (either single-wavelength emission intensities, LT, or ratios of intensities at two wavelengths, Rig) were fit to ligand-binding isotherms:
(§4) where [L] is the ligand concentration and Kd the dissociation constant corresponding to ^appKd or ^trueKd for fits to R12 (weighted by the relative contributions of ^satβ at the two different wavelengths) and Iλ respectively. For a given isothermal titration, values for ^appKd and ^true Kd were obtained using a non-linear fitting algorithm in which these two parameters were simultaneously fit to the three experimental binding isotherms using equations 29 and 30, with the two monochromatic isotherms sharing the same ^trueKd value. Three separate pairs of ^apoβ and ^satβ were fit in this procedure.

[4] = Isothermal glucose titrations from fluorescent landscapes (Roche LightCycler); format: binding
Method: as §1
The response of acrylodan to glucose binding was separated from the effects of thermal denaturation by extracting binding isotherms within the temperature range where the apo-protein remains >99% folded (T<320 K; FIG. 7). Within this temperature range, binding isotherms were constructed by extracting fluorescence values across different wells, each containing different glucose concentrations, at a given temperature, and fit individually with high accuracy to isotherms (FIG. 8):
using linear baselines which vary individually in accordance with the tilt of the S, S1, and S2 baseplanes that correspond the saturated glucose complex. The individually fit Kd(T) values were converted into ΔGb(T) and fit to the Gibbs-Helmholtz equation 9 (FIG. 9).
(§5) Analysis of mutant affinity values: Isothermal glucose titrations were extracted from the fluorescent landscape or emission datasets as described above. Monochromatic emission intensities Iλ. (these intensities correspond to a bandpass intensity recorded with a physical filter in the case of the Roche LightCycler) were fit to
(§6) where ^apoIλ2 ^apoIλ2 and ^satIλ2^satIλ2 are the emission intensities of the monochromatic signal at wavelength λ2λ2 of the ligand-free and ligand-bound protein, respectively. Equation 28 illustrates that the ^appKd ^appKd values obtained by fits of 25 to ratiometric signals are wavelength dependent. To obtain wavelength-independent values needed for comparison of mutant proteins, it is necessary to simultaneously fit ^appKd ^appKd to the ratiometric signal and ^trueKd ^trueKd to the two monochromatic signals. For a given isothermal titration, values for ^appKd ^appKd and ^trueKd ^trueKd were obtained using a non-linear fitting algorithm in which these two parameters were simultaneously fit to the three experimental binding isotherms using equations 23 and 27, with the two monochromatic isotherms sharing the same ^trueKd ^trueKd value. Three separate pairs of linear ^apoβ ^apoβ and ^satβ ^satβ baselines were fit in this procedure. TABLES 1-5 record the ^trueKd ^trueKd values at 25° C., obtained by analysis of Roche LightCycler data in 488 nm and 510 nm channels. The uncertainty of the fit (‘error’) was obtained using a boot-strapping technique in which 37% of the data was replicated. In all cases, no binding was recorded if one of ^appKd ^appKd or ^trueKd ^trueKd exceeded 200 mM. The glucose constant of GGBP183 C-acrylodan is 4.21±0.08 mM at 25° C.

[5] = as above; format: binding; details: 37° C.; mutations in GGBP183C⋅acrylodan; read-out: glucose Kd values at 37° C.
[6] = Galactose affinities of the mutants that bind glucose (Roche LightCycler); format: binding; details: trueKd at 25° C., 183C acrylodan conjugates, read-out: Kd^298K(galactose)/mM
Source text: as §5, §6
The galactose affinities for those mutants that bind glucose were also determined.

[7] = Galactose titration at room temperature on Nanodrop3300 fluorimeter; format: binding; details: ^e noisy data
Method: as §2, §3, §4

[8] = apparent, ratiometric signal at the listed wavelength pair, read-out: Affinities (mM)^d Glucose aPPKa
[9] = from monochromatic signals, read-out: Affinities (mM)^d Glucose trueKa
[10] = trueKd at 25° C., 183C acrylodan conjugates, LightCycler 488 nm and 510 nm channels, ± = bootstrap uncertainty of fit, read-out: Kd^298K(glucose)/mM
[11] = 25° C., read-out: glucose affinities
[12] = apparent, ratiometric signal at the listed wavelength pair, read-out: Affinities (mM)^d Galactose ^appKd
[13] = from monochromatic signals, read-out: Affinities (mM)^d Galactose ^trueKd

Substance: N211A: GGBP 183C acrylodan conjugate with mutation N211A
- Tm/K [1]: 317 K

- Response Intensity^c [2]: —
- Response Shape^b [2]: d
- Kd [3, 8]: 29 mM
- Kd [3, 9]: 22 mM
Substance: N211Q: GGBP 183C acrylodan conjugate with mutation N211Q
- Tm/K [1]: 317 K

- Response Intensity^c [2]: —
- Response Shape^b [2]: m?
- Kd [3, 8]: 0.31 mM
- Kd [3, 9]: 0.35 mM
Substance: A155S: GGBP 183C acrylodan conjugate with mutation A155S
- Tm/K [1]: 321 K

Substance: A155Q: GGBP 183C acrylodan conjugate with mutation A155Q
- Tm/K [1]: 321 K

Substance: N256D: GGBP 183C acrylodan conjugate with mutation N256D
- Tm/K [1]: 321 K

- Kd [4, 10]: 25.8 ± 2 mM
- Response Intensity^c [2]: —
- Response Shape^b [2]: d
- Kd [5]: ~36 mM
- Kd [3, 8]: 4.6 mM
- Kd [3, 9]: 5.1 mM
Substance: H152Q: GGBP 183C acrylodan conjugate with mutation H152Q
- Tm/K [1]: 322 K

- Kd [4, 10]: 13.5 ± 2.5 mM
- Kd [6]: 17.7 ± 2.1 mM
Substance: A155H: GGBP 183C acrylodan conjugate with mutation A155H
- Tm/K [1]: 314 K

Substance: N211F: GGBP 183C acrylodan conjugate with mutation N211F
- Tm/K [1]: 323 K

Substance: M182W: GGBP 183C acrylodan conjugate with mutation M182W
- Tm/K [1]: 322 K

Substance: N211S: GGBP 183C acrylodan conjugate with mutation N211S
- Tm/K [1]: 319 K

Substance: H152K: GGBP 183C acrylodan conjugate with mutation H152K
- Tm/K [1]: 319 K

Substance: D14N: GGBP 183C acrylodan conjugate with mutation D14N
- Tm/K [1]: 317 K

Substance: A155K: GGBP 183C acrylodan conjugate with mutation A155K
- Tm/K [1]: 318 K

Substance: K92A: GGBP 183C acrylodan conjugate with mutation K92A
- Tm/K [1]: 323 K

Substance: D236A: GGBP 183C acrylodan conjugate with mutation D236A
- Tm/K [1]: 320 K

Substance: F16A: GGBP 183C acrylodan conjugate with mutation F16A
- Tm/K [1]: 319 K

Substance: R158K: GGBP 183C acrylodan conjugate with mutation R158K
- Tm/K [1]: 318 K

Substance: A155Y: GGBP 183C acrylodan conjugate with mutation A155Y
- Tm/K [1]: 321 K

Substance: R158A: GGBP 183C acrylodan conjugate with mutation R158A
- Tm/K [1]: 322 K

Substance: N211Y: GGBP 183C acrylodan conjugate with mutation N211Y
- Tm/K [1]: 316 K

Substance: D154N: GGBP 183C acrylodan conjugate with mutation D154N
- Tm/K [1]: 318 K

Substance: D236N: GGBP 183C acrylodan conjugate with mutation D236N
- Tm/K [1]: 320 K

Substance: A155L: GGBP 183C acrylodan conjugate with mutation A155L
- Tm/K [1]: 320 K

Substance: D14L: GGBP 183C acrylodan conjugate with mutation D14L
- Tm/K [1]: 311 K

Substance: H152A: GGBP 183C acrylodan conjugate with mutation H152A
- Tm/K [1]: 316 K

Substance: N211M: GGBP 183C acrylodan conjugate with mutation N211M
- Tm/K [1]: 317 K

- Kd [4, 11]: ~0.2 mM
Substance: GGBP16C-acrylodan: F16C mutant of E. coli GGBP, acrylodan conjugate

Substance: N91A: GGBP 183C acrylodan conjugate with mutation N91A
- Tm/K [1]: 326 K

Substance: N211K: GGBP 183C acrylodan conjugate with mutation N211K
- Tm/K [1]: 315 K

Substance: D14T: GGBP 183C acrylodan conjugate with mutation D14T
- Tm/K [1]: 316 K

- Kd [4, 10]: 18.8 ± 1.3 mM
- Response Intensity^c [2]: —
- Response Shape^b [2]: d
- Kd [5]: ~14 mM
- Kd [7, 12]: 21 mM
- Kd [7, 13]: 21 mM
- Kd [3, 8]: 20 mM
- Kd [3, 9]: 15 mM
Substance: H152N: GGBP 183C acrylodan conjugate with mutation H152N
- Tm/K [1]: 322 K

Substance: A155W: GGBP 183C acrylodan conjugate with mutation A155W
- Tm/K [1]: 322 K

Substance: D154A: GGBP 183C acrylodan conjugate with mutation D154A
- Tm/K [1]: 320 K

Substance: D14H: GGBP 183C acrylodan conjugate with mutation D14H
- Tm/K [1]: 317 K

- Kd [4, 10]: 21.1 ± 0.9 mM
- Response Intensity^c [2]: —
- Response Shape^b [2]: d
- Kd [5]: ~17 mM
- Kd [3, 8]: 15 mM
- Kd [3, 9]: 16 mM
Substance: H152F: GGBP 183C acrylodan conjugate with mutation H152F
- Tm/K [1]: 321 K

- Response Intensity^c [2]: —
- Response Shape^b [2]: m
- Kd [7, 12]: 6.7 mM
- Kd [7, 13]: 8.7 mM
- Kd [3, 8]: 0.05 mM
- Kd [3, 9]: 0.05 mM
Substance: A155M: GGBP 183C acrylodan conjugate with mutation A155M
- Tm/K [1]: 321 K

Substance: F16L: GGBP 183C acrylodan conjugate with mutation F16L
- Tm/K [1]: 321 K

Substance: D14E: GGBP 183C acrylodan conjugate with mutation D14E
- Tm/K [1]: 318 K

Substance: N256A: GGBP 183C acrylodan conjugate with mutation N256A
- Tm/K [1]: 324 K

Substance: Y10A: GGBP 183C acrylodan conjugate with mutation Y10A
- Tm/K [1]: 326 K

- Response Intensity^c [2]: —
- Response Shape^b [2]: m
- Kd [7, 12]: 0.82 mM
- Kd [7, 13]: 0.93 mM
- Kd [3, 8]: 0.06 mM
- Kd [3, 9]: 0.06 mM
Substance: A155F: GGBP 183C acrylodan conjugate with mutation A155F
- Tm/K [1]: 321 K

Substance: N211W: GGBP 183C acrylodan conjugate with mutation N211W
- Tm/K [1]: 328 K

- Kd [4, 11]: ~0.2 mM
Substance: GGBP16C-badan: F16C mutant of E. coli GGBP, badan conjugate

Substance: N211H: GGBP 183C acrylodan conjugate with mutation N211H
- Tm/K [1]: 320 K

- Kd [6]: 90 ± 21 mM
Substance: D14A: GGBP 183C acrylodan conjugate with mutation D14A
- Tm/K [1]: 317 K
